Results as given in US20230398087A1, “APPLICATION OF BZP IN TREATMENT OF ISCHEMIC CARDIOVASCULAR AND CEREBRAL VASCULAR DISEASES” (priority 2020, published 2023).

Tests used:
[1] = test system: SYN, GAP-43, BDNF, GFAP, NOGO-A in the ischemic penumbra area; assay: Neuroplasticity after focal cerebral ischemia-reperfusion injury; format: in vivo, rats
Source text: 2.4 Effect of BZP on Neuroplasticity after Focal Cerebral Ischemia-Reperfusion Injury in Rats: […]

platelet aggregation [2] = assay: Ex vivo platelet aggregation; format: cell-based
salt-sensitive rats = assay: Salt-sensitive rats; format: in vivo
cardiovascular system = assay: Safety pharmacology, cardiovascular system; format: in vivo, dogs
Description: These changes all recovered within 0.5 hours after administration. The dose range of […] BZP has no effect on the II-lead ECG.

[3] = test system: global cerebral ischemia-reperfusion model in rats; assay: Global cerebral ischemia-reperfusion injury in rats; format: in vivo
Description: BZP has a protective effect on cerebral ischemia-reperfusion injury and is effective when administered within 4 hours after ischemia, especially within 2 hours after ischemia.
2.5 The Protective Effect of BZP on Global Cerebral Ischemia-Reperfusion Injury in Rats:
BZP has a protective effect on acute global cerebral ischemia in rats, and its mechanism is to inhibit the inflammatory response and apoptosis of cells.

[4] = Pharmacokinetics after intravenous injection in dogs; format: in vivo
[5] = test system: acute global cerebral ischemia in rats; assay: Acute global cerebral ischemia in rats, volume of cerebral infarction (nuclear magnetic resonance); format: in vivo
Source text: 2.7 The Protective Effect of BZP on Acute Global Cerebral Ischemia in Rats: […]

[6] = Long-term toxicity test, 13 consecutive weeks, dogs; format: in vivo
Description: These gradually returned to normal within 1 hour. […] The nervous system and respiratory system reactions in the long-term toxicity test were transient reactions, and the slight anemia and damage to the liver also recovered within the observation period.

[7] = Pharmacokinetics after intravenous injection in rats; format: in vivo
[8] = test system: TNF-α, IL-6, IL-1β, NF-κB, COX-2, ICAM-1; assay: Inflammatory response induced by focal cerebral ischemia-reperfusion injury, immunohistochemical staining; format: in vivo, rats
Source text: 2.2 Effects of BZP on Inflammatory Response Induced by Focal Cerebral Ischemia-Reperfusion Injury in Rats:
The results of TNF-α, IL-6, IL-1β, NF-κB, Cox-2, ICAM-1 immunohistochemical staining
BZP can inhibit the cellular inflammatory response induced by cerebral ischemia-reperfusion injury, manifested as inhibiting the expression of TNF-α-IL-6-IL-1β-NF-κB-COX-2-ICAM-1 loop.

platelet aggregation [9] = assay: Rat in vivo platelet aggregation
neurobehavior = assay: Safety pharmacology, neurobehavior; format: in vivo, rats
Description: These changes all recovered within 4 hours after drug withdrawal. The effective dose (12 mg/kg) of BZP to protect against ischemia-reperfusion injury in rats was lower than the dose (50 mg/kg) that caused neurological effects in rats.

[10] = Tissue distribution, metabolism and excretion in animals; format: in vivo
Source text: BNBP-OH is the main metabolite of BNBP (via NADPH coenzyme/CYP450).

[11] = test system: Bax/Bcl-2-cytochrome C-Caspase-3 mitochondrial apoptosis pathway; PI3K-p-Akt survival signaling pathway; assay: Neuronal apoptosis after focal cerebral ischemia-reperfusion injury; design: species or system rats; details: rat, in vivo
Source text: 2.3 The Protective Effect of BZP on Neuronal Apoptosis after Focal Cerebral Ischemia-Reperfusion Injury in Rats: […]

respiratory system = assay: Safety pharmacology, respiratory system; format: in vivo, rats; details: single intravenous injection 25-100 mg/kg
Description: In terms of the respiratory system, a single intravenous injection of BZP 25-100 mg/kg had no effect on rats.

[12] = compared with the model group (P<0.05)
[13] = 7 consecutive days, 6.0 mg/kg, rats
[14] = 12 mg/kg of BZP vs 9.6 mg/kg NBP-K and 10.5 mg/kg Br-NBP
[15] = low, middle and high dose, compared with the model group

## CCCCC(O)c1ccc(Br)cc1C(=O)[O-].[Na+] (stereo not drawn) [BZP, sodium 5-bromo-2-(α-hydroxypentyl)benzoate]
[1]; ischemic penumbra area
  NOGO-A expression: down-regulating
  expression of SYN, GAP-43, BDNF and GFAP: increasing
[1]; rat, in vivo
  nerve repair and recovery of motor function after cerebral ischemic injury: promote nerve repair
Platelet aggregation [2]; ADP-induced
  inhibition of ADP-induced platelet aggregation: no inhibitory effects
Platelet aggregation [2]; Platelet, AA-induced
  IC50: 12 µM
Platelet aggregation [2]; thrombin-induced
  inhibition of thrombin-induced platelet aggregation: no inhibitory effects
salt-sensitive rats; 12 mg/kg, 21 days after administration
  blood pressure of salt-sensitive rats: significantly reduce the blood pressure
salt-sensitive rats; BZP 3, 12 and 24 mg/kg, dose-dependent
  neurobehavior of salt-sensitive rats: improve the neurobehavior
Cardiovascular system; 50 mg/kg intravenous
  time to recovery of blood pressure changes after administration: ≤ 0.5 h
Cardiovascular system; 0.25 hours after intravenous injection of 50 mg/kg
  systolic blood pressure, diastolic blood pressure and mean arterial pressure: small transient increase
Cardiovascular system; dose range of 5-50 mg
  effect on the II-lead ECG: no effect
[3]; 12 mg/kg
  mortality and behavioral score within 24 hours: reduce the mortality and behavioral score
[3]; 3 and 12 mg/kg
  mortalities within 24 hours: lower than those in the model group and the NBP-K group
[3]; compared with the model group (P<0.01)
  cell survival pathways (PI3K, P-Akt): significantly increased
[3]; [12]
  behavioral scores: significantly lower
  expression of inflammatory circuit factors, apoptosis pathway factors, neuron necrosis rate and apoptosis rate in hippocampal CA1 region: significantly decreased
[4]; 7 consecutive days, 2.0 mg/kg, dogs
  Cmax and AUC0-t, first compared with last administration: no statistically significant differences
[4]; intravenous, 7 consecutive days, 2.0 mg/kg, dogs
  accumulation in the body: did not accumulate
[4]; single intravenous injection
  difference between male and female dogs: no significant difference
[4]; single intravenous injection of BZP 1.0-4.0 mg/kg, dogs
  Cmax and AUC0-t versus dose: basically conformed to linear kinetics
[5]; 12 and 24 mg/kg of BZP (P<0.01)
  reduction of volume of cerebral infarction compared with Br-NBP group and NBP-K group: better than those in Br-NBP group and NBP-K group
[5]; BZP 0.75, 3, 12 and 24 mg/kg, Br-NBP 10.5 mg/kg, NBP-K 9.6 mg/kg, vs model group
  volume of cerebral infarction: significantly reduce
[6]; 50 mg/kg, some dogs
  clinical signs during and after administration: tremors in the head and limbs, loose stools, vomiting, and salivation
[6]; 150 mg/kg intravenous once a day, 13 weeks, dogs
  clinical signs during each administration: vomited white foam-like substances, salivation, head and whole body tremors, spasms/convulsions
[6]; 150 mg/kg, dogs
  anemia and liver findings: mild anemia and liver damage
[6]; dog, in vivo, long-term toxicity test, dogs, read-out: NOAEL dose
  NOAEL at 13 weeks: 50 mg/kg
[6]; dogs, after drug withdrawal
  recovery of symptoms: all recovered after 28 days of drug withdrawal
[7]; [13]
  AUC0-t after the last administration compared with the first: significantly higher than that of the first time
  Cmax, single dose compared with multiple doses: no difference
[7]; intravenous, 7 consecutive days, 6.0 mg/kg, rats
  accumulation in the body: did not accumulate
[7]; single intravenous injection
  AUC0-t, female compared with male rats: significantly higher than that in male rats
[7]; single intravenous injection of BZP 0.75-12.0 mg/kg, rats
  Cmax and AUC0-t versus dose: basically conformed to linear kinetics
[8]; [14]
  number of positive cells, comparison with NBP-K and Br-NBP groups: better than 9.6 mg/kg of NBP-K group and 10.5 mg/kg of Br-NBP group
  optical density value, comparison with NBP-K and Br-NBP groups: better than 9.6 mg/kg of NBP-K group and 10.5 mg/kg of Br-NBP group
[8]; [15]
  expression of TNF-α, IL-6, IL-1β, NF-κB, COX-2, ICAM-1, immunohistochemical staining optical density value: significantly reduced
  expressions of TNF-α, IL-6, IL-1β, NF-κB, COX-2, ICAM-1, number of immunohistochemical positive cells: significantly reduced
Platelet aggregation [9]; first (low) dose group
  platelet aggregation inhibition rate, ADP: 23.89%
  platelet aggregation inhibition rate, arachidonic acid: 42.08%
  platelet aggregation inhibition rate, thrombin: 23.87%
Platelet aggregation [9]; second (medium) dose group
  platelet aggregation inhibition rate, ADP: 34.42%
  platelet aggregation inhibition rate, arachidonic acid: 60.32%
  platelet aggregation inhibition rate, thrombin: 37.75%
Platelet aggregation [9]; third (high) dose group
  platelet aggregation inhibition rate, ADP: 44.14%
  platelet aggregation inhibition rate, arachidonic acid: 72.20%
  platelet aggregation inhibition rate, thrombin: 55.47%
neurobehavior; 50 and 100 mg/kg
  time to recovery of neurobehavioral changes after drug withdrawal: ≤ 4 h
neurobehavior; single intravenous injection
  dose that caused neurological effects in rats: 50 mg/kg
neurobehavior; single intravenous injection 50 mg/kg and 100 mg/kg
  body temperature: decrease in body temperature
neurobehavior; single intravenous injection 100 mg/kg
  neurobehavioral signs at high dose: decreased activity, erect hair, decreased frequency of defecation and urination and loss of pupillary stimulation reflex
[10]; at 110 minutes of administration
  tissue distribution of BZP: the fat content was the highest
[10]; eliminated quickly
  detectability in the brain: cannot be detected after 50 minutes
[10]; in vivo
  concentration in the brain: relatively low
[10]; not via NADPH coenzyme/CYP450
  conversion of BZP in vivo: rapidly converted to BNBP
[10]; spleen has the lowest ability
  ability of tissues to transform BZP in vitro: liver tissue has the strongest ability to transform BZP in vitro
[10]; within 50 minutes of administration
  tissue distribution of BZP: higher in the lung tissue
[11]
  Bax/Bcl-2-cytochrome C-Caspase-3 mitochondrial apoptosis pathway: inhibiting
  PI3K-p-Akt survival signaling pathway: up-regulating
  loss of nerve cells and apoptosis rate: reduce the loss of nerve cells and reduce the apoptosis rate
Respiratory system
  effect on the respiratory system: no effect
